The nature of series [1]: Feeding of 1.0% CLA diet to rats for four weeks: growth and weight of organs. The note with it: 1.0% CLA in diet, 4 weeks. The class given is in vivo, Sprague-Dawley male rats. The source says:
(§1) Sprague-Dawley male rats of four weeks of age were pre-bred, and then divided into two groups (each group consisting of 8 rats), a 1.0% linoleic acid group (a control group) and a 1.0% CLA group. The experimental diet shown in Table 1 and water were then freely fed to these two groups of rats. […] Four weeks after the initiation of feeding, the 8 rats constituting each group were sacrificed, and the organs were taken out.

Series [2] relates to carnitine palmitoyltransferase (CPT). As to the kind of experiment: Carnitine palmitoyltransferase (CPT) activity in brown adipose tissues of rats fed CLA. It counts as in vivo, Sprague-Dawley male rats. The note with it: 1.0% CLA in diet, 4 weeks.
From the text: as §1
Further, the activity of carnitine palmitoyltransferase (CPT) as a rate-determining enzyme in β-oxidation of fatty acids was measured in brown adipose tissues.

Experimental findings from patent US6451336B2, “Method for increasing brown fat, comprising administering conjugated linoleic acid as active ingredient” (Rinoru Oil Mills Co., Ltd., priority 1999, dated 2002) are described below.

On to conjugated linoleic acid [CLA], for which, in series [1], the “Food intake, in words, compared with 1.0% linoleic acid control group” value is given as “without affecting”; the “Weight gain, in words, compared with 1.0% linoleic acid control group” value is “without affecting”; the “Weight of adipose tissues around the kidney (white adipose tissues), in words, compared with control group” value is “significantly decreased”; the “Weight of brown adipose tissues in the back, in words, compared with control group” value is “significantly increased”. Also, in series [1], the “Weight of organs: Brain” value came to 0.38 g/100 g body weight, the “Weight of organs: Brown adipose tissue” value came to 0.21 g/100 g body weight, the “Weight of organs: Epididymal adipose tissue” value is 1.17 g/100 g body weight and the “Weight of organs: Heart” value came to 0.36 g/100 g body weight. In addition, in series [1], the “Weight of organs: Kidney” value turned out to be 0.78 g/100 g body weight, the “Weight of organs: Liver” value is listed as 4.40 g/100 g body weight, the “Weight of organs: Lung” value is recorded as 0.40 g/100 g body weight and the “Weight of organs: Spleen” value was determined as 0.22 g/100 g body weight. Also, in series [1], the “Weight of tissues of liver, kidney, heart, lungs, spleen and brain, in words, compared with control group” value was “no difference”. In series [1] (free feeding), this substance showed a Food intake of 21.0 g/day and a Weight gain of 227 g/4 weeks. For the same substance, in series [1] (white adipose tissue), the “Weight of organs: Peri-renal adipose tissue” value is recorded as 1.16 g/100 g body weight. Besides, the “Activity of carnitine palmitoyltransferase (CPT) in brown adipose tissues, in words, compared with control group” value in series [2] was “higher”.
